The test deals with T1, Pent (designed pentameric 5-bladed β-propeller lectin, 5c2n-N33K).
T1 construct: 47-residue monomer (lacking Met1), homopentamer of ~26 kDa; designed, based on tachylectin-2 (PDB 5C2N)
Briefly: X-ray cocrystal structures (forms I and II); 1H-15N HSQC NMR titration. Format: binding, synthetic construct.

Data on one molecule can be found in publication PMC10865345, “Multivalent Calixarene Complexation of a Designed Pentameric Lectin” (Biomacromolecules, 2024).

In the case of `O=S(=O)(O)c1cc2c(O)c(c1)Cc1cc(S(=O)(=O)O)cc(c1O)Cc1cc(S(=O)(=O)O)cc(c1O)Cc1cc(S(=O)(=O)O)cc(c1O)Cc1cc(S(=O)(=O)O)cc(c1O)Cc1cc(S(=O)(=O)O)cc(c1O)Cc1cc(S(=O)(=O)O)cc(c1O)Cc1cc(S(=O)(=O)O)cc(c1O)C2` [sclx8, sulfonato-calix[8]arene], the Kd – broadly, the concentration at which binding is half-saturated – is less than 3000 nM.
